Data on 15 compounds can be found in US10150766B2, “P2X7 modulators” (Jansssen Pharmaceutica NV, priority 2014, dated 2018).

Read-outs that look alike come from different tables or passages of the source.

Experiment [1] addresses T1, P2X7 (Homo sapiens (Human), UniProt Q99572). The experiment in a line: Radioligand binding ([3H]A-804598) to membranes of human P2X7-1321N1 cells. The conditions noted are these: human P2X7-1321N1 membranes, tracer tritiated A-804598, 1 hour at 4° C. The procedure: P2X7 Antagonism in Recombinant Human P2X7 Cells or Recombinant Rat P2X7 Cells:
human or rat P2X7-1321N1 cells were collected and frozen @ −80° C. On the day of the experiment, cell membrane preparations were made according to standard published methods. […] The compound can be prepared as described in the literature. […] The assay was terminated by filtration (GF/B filters pre-soaked with 0.3% PEI) and washed with washing buffer (Tris-HCl 50 mM). The IC50 generated in the binding assay was corrected for tracer concentration and affinity of the tracer to derive at the affinity (Ki) of the test compounds. The data are presented in Table 2 under the headings: P2X7 human Ki (μM) and P2X7 rat Ki (μM). Data are analyzed and graphed on Graphpad Prism 5. For analysis, each concentration point is averaged from triplicate values and the averaged values are plotted on Graphpad Prism.

A further experiment has as its target rat P2X7 (Rattus norvegicus (Rat), UniProt Q64663). The experiment in a line: P2X7 antagonism in recombinant rat P2X7 cells (column headed P2X7 Rat IC50). It is filed as binding.
The target of experiment [2] is T1, P2X7. As to the kind of experiment: P2X7 antagonism in human peripheral blood mononuclear cells (PBMCs), IL-1β release (LPS + Bz-ATP, ELISA). It is filed as cell-based. The conditions noted are these: P2X7, 10 μM test compound, LPS 30 ng/ml + Bz-ATP 0.5 mM, read-out: PBMC @10 μM (% control).
For experiment [3], the target named is T1, P2X7. The experiment in a line: P2X7 antagonism in human whole blood, IL-1β release (LPS + Bz-ATP, ELISA). It is filed as cell-based. The conditions noted are these: LPS 30 ng/ml + Bz-ATP 1 mM.
Where [4] appears, read: read-out: Human Whole Blood IC50.

Chain of rat P2X7 (Q64663 whole entry): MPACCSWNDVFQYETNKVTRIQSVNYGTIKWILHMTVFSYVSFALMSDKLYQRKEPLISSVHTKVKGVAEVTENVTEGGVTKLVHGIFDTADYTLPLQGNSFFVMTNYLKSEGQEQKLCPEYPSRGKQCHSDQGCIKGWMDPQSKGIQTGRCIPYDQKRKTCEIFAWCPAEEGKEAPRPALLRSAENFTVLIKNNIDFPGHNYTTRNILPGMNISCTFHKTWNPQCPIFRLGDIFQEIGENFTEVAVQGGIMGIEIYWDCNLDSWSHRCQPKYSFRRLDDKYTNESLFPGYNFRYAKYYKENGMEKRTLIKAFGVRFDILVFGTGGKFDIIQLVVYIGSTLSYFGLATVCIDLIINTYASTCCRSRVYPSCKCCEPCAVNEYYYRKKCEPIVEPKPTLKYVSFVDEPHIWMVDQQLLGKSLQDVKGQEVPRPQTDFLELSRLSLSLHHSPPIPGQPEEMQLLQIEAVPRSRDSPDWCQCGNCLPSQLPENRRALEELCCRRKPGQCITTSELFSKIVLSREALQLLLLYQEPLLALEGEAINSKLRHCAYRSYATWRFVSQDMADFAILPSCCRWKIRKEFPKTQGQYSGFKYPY
T1 sequence (Q99572 whole entry): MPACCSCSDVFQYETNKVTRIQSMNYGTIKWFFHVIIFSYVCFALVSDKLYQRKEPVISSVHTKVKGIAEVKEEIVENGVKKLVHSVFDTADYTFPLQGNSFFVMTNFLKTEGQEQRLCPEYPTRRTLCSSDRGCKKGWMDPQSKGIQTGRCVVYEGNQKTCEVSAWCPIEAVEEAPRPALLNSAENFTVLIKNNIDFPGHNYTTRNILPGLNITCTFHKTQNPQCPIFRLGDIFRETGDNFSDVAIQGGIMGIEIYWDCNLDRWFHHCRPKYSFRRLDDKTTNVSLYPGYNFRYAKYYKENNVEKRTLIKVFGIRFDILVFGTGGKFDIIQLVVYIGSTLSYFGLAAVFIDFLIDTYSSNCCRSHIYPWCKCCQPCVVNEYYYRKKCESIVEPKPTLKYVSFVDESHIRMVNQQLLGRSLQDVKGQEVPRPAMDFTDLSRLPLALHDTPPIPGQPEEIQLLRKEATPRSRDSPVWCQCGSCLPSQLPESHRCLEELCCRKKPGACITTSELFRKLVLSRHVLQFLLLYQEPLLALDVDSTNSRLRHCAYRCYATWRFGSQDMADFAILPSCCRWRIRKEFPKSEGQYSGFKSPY

For `Cc1nc(-c2cnccn2)c2c(n1)[C@H]1CCC[C@@H](C2)N1C(=O)c1cccc(C(F)(F)F)c1Cl` [Example 46, (2-chloro-3-(trifluoromethyl)phenyl)((6S,10R)-2-methyl-4-(pyrazin-2-yl)-5,6,7,8,9,10-hexahydro-6,10-epiminocycloocta[d]pyrimidin-11-yl)methanone], the affinity at P2X7 [1] corresponds to a Ki of 31.6 nM. The IC50 at rat P2X7 was 14.1 nM; at P2X7 [3] (Human Whole Blood IC50 (μM)), 0.088 µM. Further, the remaining activity at 10 µM on P2X7 [2] is -4.2%.

In turn, `Cc1nc(-c2ccnn2C)c2c(n1)[C@H]1CCC[C@@H](C2)N1C(=O)c1cccc(Cl)c1Cl` [Example 59, (2,3-dichlorophenyl)((6S,10R)-2-methyl-4-(1-methyl-1H-pyrazol-5-yl)-5,6,7,8,9,10-hexahydro-6,10-epiminocycloocta[d]pyrimidin-11-yl)methanone] had an inhibitory constant (Ki) on P2X7 [1] of 135 nM. Besides, the results for the IC50 at rat P2X7 and at P2X7 [3] (setting [4]) were 1090 nM and 0.372 µM, respectively. Moreover, the remaining activity at 10 µM on P2X7 [2] was -1.8%.

As to `Cc1nc(-c2ccn[nH]2)c2c(n1)[C@@H]1CCC[C@H](C2)N1C(=O)c1cccc(Cl)c1Cl` [Example 11, (2,3-dichlorophenyl)((6R,10S)-2-methyl-4-(1H-pyrazol-5-yl)-5,6,7,8,9,10-hexahydro-6,10-epiminocycloocta[d]pyrimidin-11-yl)methanone], the affinity on P2X7 [1], expressed as Ki, was 501 nM. In addition, the half-maximal inhibitory concentration (IC50) on rat P2X7 is 944 nM; at P2X7 [3] (Human Whole Blood IC50 (μM)), 0.302 µM. Besides, the remaining activity at 10 µM at P2X7 [2] was found to be 24.4%.

As for `Cc1nc(-c2ccn[nH]2)c2c(n1)[C@H]1CCC[C@@H](C2)N1C(=O)c1ccnc(C(F)(F)F)c1Cl` [Example 24, (3-chloro-2-(trifluoromethyl)pyridin-4-yl)((6S,10R)-2-methyl-4-(1H-pyrazol-5-yl)-5,6,7,8,9,10-hexahydro-6,10-epiminocycloocta[d]pyrimidin-11-yl)methanone], the inhibition constant (Ki) at P2X7 [1] was determined as 126 nM. Besides, the results for the half-maximal inhibitory concentration (IC50) at rat P2X7 and on P2X7 [3] (Human Whole Blood IC50 (μM)) were 19.2 nM and 0.038 µM, respectively. Moreover, the remaining activity at 10 µM on P2X7 [2] worked out at 2.4%.

On P2X7 [1], `Cc1nc(-c2ccc(F)cc2)c2c(n1)[C@H]1CCC[C@@H](C2)N1C(=O)c1cccc(Cl)c1Cl` [Example 55, (2,3-dichlorophenyl)((6S,10R)-4-(4-fluorophenyl)-2-methyl-5,6,7,8,9,10-hexahydro-6,10-epiminocycloocta[d]pyrimidin-11-yl)methanone] came in with an inhibition constant Ki of 105 nM. The 50% inhibitory concentration (IC50) on rat P2X7 turned out to be 217 nM; on P2X7 [3] (Human Whole Blood IC50 (μM)), 0.037 µM. Further, the remaining activity at 10 µM at P2X7 [2] is -1.6%.

`Cc1nc(-c2ccnn2C)c2c(n1)[C@H]1CCC[C@@H](C2)N1C(=O)c1cccc(C(F)(F)F)c1C` [Example 57, (2-methyl-3-(trifluoromethyl)phenyl)((6S,10R)-2-methyl-4-(1-methyl-1H-pyrazol-5-yl)-5,6,7,8,9,10-hexahydro-6,10-epiminocycloocta[d]pyrimidin-11-yl)methanone] came in with an inhibitory constant (Ki) on P2X7 [1] of 190 nM. Also, the values for the IC50 on rat P2X7 and on P2X7 [3] (setting [4]) were 597 nM and 0.191 µM, respectively. Further, at P2X7 [2], the remaining activity at 10 µM was -0.3%.

`Cc1nc(-c2ccn[nH]2)c2c(n1)[C@H]1CCC[C@@H](C2)N1C(=O)c1cccc(C(F)(F)F)c1C` [Example 21, (2-methyl-3-(trifluoromethyl)phenyl)((6S,10R)-2-methyl-4-(1H-pyrazol-5-yl)-5,6,7,8,9,10-hexahydro-6,10-epiminocycloocta[d]pyrimidin-11-yl)methanone] came in with an inhibitory constant (Ki) on P2X7 [1] of 31.6 nM. Also, the IC50 was 33.2 nM on rat P2X7 and 0.026 µM at P2X7 [3] (Human Whole Blood IC50 (μM)). Moreover, the remaining activity at 10 µM on P2X7 [2] was -26.4%.

`Cc1nc(-c2ccn[nH]2)c2c(n1)[C@H]1CCC[C@@H](C2)N1C(=O)c1ccnc(C(F)(F)F)c1F` [Example 27, (3-fluoro-2-(trifluoromethyl)pyridin-4-yl)((6S,10R)-2-methyl-4-(1H-pyrazol-5-yl)-5,6,7,8,9,10-hexahydro-6,10-epiminocycloocta[d]pyrimidin-11-yl)methanone]: the affinity at P2X7 [1] corresponds to a Ki of 151 nM. Further, the values for the IC50 at rat P2X7 and at P2X7 [3] (setting [4]) were 132 nM and 0.172 µM, respectively. Further, the remaining activity at 10 µM on P2X7 [2] was -10.2%.

On P2X7 [1], `Cc1nc(-c2ncccn2)c2c(n1)[C@H]1CCC[C@@H](C2)N1C(=O)c1cccc(C(F)(F)F)c1Cl` [Example 41, (2-chloro-3-(trifluoromethyl)phenyl)((6S,10R)-2-methyl-4-(pyrimidin-2-yl)-5,6,7,8,9,10-hexahydro-6,10-epiminocycloocta[d]pyrimidin-11-yl)methanone] came in with a Ki of 29.5 nM. The concentration for half-maximal inhibition (IC50) at rat P2X7 was determined as 15.8 nM; at P2X7 [3] (Human Whole Blood IC50 (μM)), 0.021 µM. Also, at P2X7 [2], the remaining activity at 10 µM is -5.6%.

For the compound `Cc1nc(-c2ccn[nH]2)c2c(n1)[C@H]1CCC[C@@H](C2)N1C(=O)c1cccc(Cl)c1Cl` [Example 29, (2,3-dichlorophenyl)((6S,10R)-2-methyl-4-(1H-pyrazol-5-yl)-5,6,7,8,9,10-hexahydro-6,10-epiminocycloocta[d]pyrimidin-11-yl)methanone], the affinity at P2X7 [1], expressed as Ki, was 20 nM. The IC50 came to 206 nM at rat P2X7 and 0.008 µM at P2X7 [3] (Human Whole Blood IC50 (μM)). For the same compound, the remaining activity at 10 µM at P2X7 [2] was -22.9%.

Consider `Cc1nc(-c2ccc(F)cc2)c2c(n1)[C@H]1CCC[C@@H](C2)N1C(=O)c1cccc(C(F)(F)F)c1C` [Example 53, ((6S,10R)-4-(4-fluorophenyl)-2-methyl-5,6,7,8,9,10-hexahydro-6,10-epiminocycloocta[d]pyrimidin-11-yl)(2-methyl-3-(trifluoromethyl)phenyl)methanone], for which the affinity on P2X7 [1] corresponds to a Ki of 31.6 nM. The half-maximal inhibitory concentration (IC50) at rat P2X7 amounted to 191 nM; at P2X7 [3] (setting [4]) it was 0.131 µM. The remaining activity at 10 µM on P2X7 [2] stood at 0%.

On P2X7 [1], `Cc1nc(-c2cnccn2)c2c(n1)[C@H]1CCC[C@@H](C2)N1C(=O)c1ccc(Cl)c(F)c1Cl` [Example 47, (2,4-dichloro-3-fluorophenyl)((6S,10R)-2-methyl-4-(pyrazin-2-yl)-5,6,7,8,9,10-hexahydro-6,10-epiminocycloocta[d]pyrimidin-11-yl)methanone] registered a Ki of 39.8 nM. Besides, the IC50 was found to be 245 nM at rat P2X7 and 0.04 µM at P2X7 [3] (Human Whole Blood IC50 (μM)). In addition, on P2X7 [2], the remaining activity at 10 µM was -3.4%.

As for `Cc1nc(-c2ccccn2)c2c(n1)[C@H]1CCC[C@@H](C2)N1C(=O)c1cccc(C(F)(F)F)c1Cl` [Example 63, (2-chloro-3-(trifluoromethyl)phenyl)((6S,10R)-2-methyl-4-(pyridin-2-yl)-5,6,7,8,9,10-hexahydro-6,10-epiminocycloocta[d]pyrimidin-11-yl)methanone], the affinity at P2X7 [1] corresponds to a Ki of 39.8 nM. Further, the IC50 at rat P2X7 was found to be 33.1 nM; on P2X7 [3] (Human Whole Blood IC50 (μM)) it was 0.068 µM. Moreover, the remaining activity at 10 µM at P2X7 [2] was -0.9%.

In turn, `Cc1nc(-c2ccnn2C)c2c(n1)[C@H]1CCC[C@@H](C2)N1C(=O)c1cccc(C(F)(F)F)c1Cl` [Example 56, (2-chloro-3-(trifluoromethyl)phenyl)((6S,10R)-2-methyl-4-(1-methyl-1H-pyrazol-5-yl)-5,6,7,8,9,10-hexahydro-6,10-epiminocycloocta[d]pyrimidin-11-yl)methanone] displayed an inhibition constant Ki on P2X7 [1] of 100 nM. Moreover, the figures for the IC50 on rat P2X7 and at P2X7 [3] (Human Whole Blood IC50 (μM)) were 11.6 nM and 0.048 µM, respectively. Besides, the remaining activity at 10 µM at P2X7 [2] is -2.9%.

In the case of `Cc1nc(-c2ccc(F)cc2)c2c(n1)[C@H]1CCC[C@@H](C2)N1C(=O)c1cccc(C(F)(F)F)c1Cl` [Example 51, (2-chloro-3-(trifluoromethyl)phenyl)((6S,10R)-4-(4-fluorophenyl)-2-methyl-5,6,7,8,9,10-hexahydro-6,10-epiminocycloocta[d]pyrimidin-11-yl)methanone], at P2X7 [1], the inhibition constant (Ki) stood at 44.7 nM. The results for the IC50 at rat P2X7 and on P2X7 [3] (Human Whole Blood IC50 (μM)) were 16.6 nM and 0.043 µM, respectively. Further, on P2X7 [2], the remaining activity at 10 µM was -3%.
